Assay type in all cases: cell-based, human
Experiment [1] has as its system SKOV3 resistant 1. The experiment in a line: Crystal Violet assay, SKOV3 resistant 1 versus parental line. Particulars: SKOV3 resistant 1, 72 hours, Crystal Violet. The text has this:
(§1) BAL27862-resistant sublines of human non-small cell lung cancer (H460 ATCC reference HTB-177; A549 ATCC reference CCL-185), ovarian cancer (SKOV3 ATCC reference HTB-77) lines were generated by long-term selection in complete cell culture medium (RPMI-1640 containing 10% FCS; Sigma-Aldrich) by stepwise increasing concentrations of BAL27862. […] The resistant sublines were expanded at the highest tolerated BAL27862 concentration and subsequently frozen and stored in liquid nitrogen.
(§2) After medium was removed, cells were fixed and stained by adding 50 μl Crystal Violet Staining (0.2% Crystal Violet in 50% Methanol) per well. Plates were incubated for 1 hour at room temperature. Subsequently the stain was decanted and plates were washed 4 times with double-distilled water. Plates were air-dried for several hours. Stain was dissolved by adding 100 μl buffer (0.1 M Tris pH 7.5, 0.2% SDS, 20% Ethanol) per well and shaking the plates. Absorbance at 590 nm was measured using a SpectraMax M2e plate reader (Molecular Devices). Anti-proliferative IC50 values were calculated from concentration response curves using GraphPad Prism software. Resistance factors were calculated as a ratio of BAL27862 IC50 in the resistant line variant versus the IC50 in the parental line.

Experiment [2] has as its system CXF 243 patient-derived colorectal tumour. The experiment in a line: Colony outgrowth assay, CXF 243. Also on record: key to Response to compound (BAL27862, paclitaxel, vinblastine): Sensitive: BAL27862-sensitive tumour cells have IC70 values in the low nanomolar range; Resistant: BAL27862-resistant tumour cells are defined by IC70 values >600 nanomolar. Particulars: CXF 243, colorectal cancer, ex vivo colony outgrowth. The method, then:
(§3) Single cell suspensions of patient-derived tumour xenografts (maintained in nude mice) were prepared. For colony outgrowth assays, cells were plated in soft agar in 24-well plates according to the assay introduced by Hamburger & Salmon (Primary bioassay of human tumour stem cells, Science, 1977.197:461-463). 2×10^4-6×10^4 cells in 0.2 mL medium containing 0.4% agar were plated out on a bottom layer of 0.75% agar. Test compounds were applied in 0.2 mL culture medium. Every 24-well plate contained untreated controls and samples in triplicates. Cultures were incubated at 37° C. and 7.5% CO2 for 5-28 days. 24 hours prior to analysis, vital colonies were stained with a solution of metabolisable tetrazolium salt (Alley M C et al, Life Sci. 1982, 31:3071-3078) and were counted with an automatic image analysis system (Omnicon 3600, Biosys GmbH).
(§4) Relative drug effects were expressed by the ratio of the mean number of colonies in the treated wells and the control wells. IC70-values were determined by plotting compound concentrations versus relative colony counts.

The test system of experiment [3] is MEXF 276 patient-derived melanoma. The experiment in a line: Colony outgrowth assay, MEXF 276. Particulars: MEXF 276, melanoma, ex vivo colony outgrowth. The method, then: as §3, §4
In experiment [4] the test system is LXFE 211 Patient-derived lung tumour. The experiment is described as follows: Colony outgrowth assay, LXFE 211. Set-up: key to Response to compound (BAL27862, paclitaxel, vinblastine): Sensitive: BAL27862-sensitive tumour cells have IC70 values in the low nanomolar range; Resistant: BAL27862-resistant tumour cells are defined by IC70 values >600 nanomolar. Particulars: LXFE 211, lung cancer, ex vivo colony outgrowth. The method, then:
as §3, §4

The subject of experiment [5] is MEXF 1341 patient-derived melanoma. The experiment in a line: Colony outgrowth assay, MEXF 1341. Particulars: MEXF 1341, melanoma, ex vivo colony outgrowth. The method, then: as §3, §4
The test system of experiment [6] is H460 BAL27862-resistant cell line variant. The experiment is described as follows: Crystal Violet assay, BAL27862-resistant H460 versus parental line. As to conditions: H460, 72 hours, Crystal Violet.
From the text: as §1, §2

Experiment [7] has as its system A549 BAL27862-resistant cell line variant. The experiment is described as follows: Crystal Violet assay, BAL27862-resistant A549 versus parental line. Particulars: A549, 72 hours, Crystal Violet.
From the text: as §1, §2

Experiment [8] concerns CXF 1103 patient-derived colorectal tumour. The experiment is described as follows: Colony outgrowth assay, CXF 1103. Particulars: CXF 1103, colorectal cancer, ex vivo colony outgrowth. Here is the method: as §3, §4
Experiment [9] has as its system SKOV3 resistant 2. The experiment in a line: Crystal Violet assay, SKOV3 resistant 2 versus parental line. Particulars: SKOV3 resistant 2, 72 hours, Crystal Violet.
From the text: as §1, §2

The test system of experiment [10] is A549 NSCLC cells. The experiment is described as follows: Immunofluorescent staining of microtubules, A549. Particulars: A549, 24 hours; 50 nM BAL27862, 80 nM Compound B, 20 nM Compound C; anti-alpha-tubulin staining. Here is the method: A549 human non-small cell lung cancer (NSCLC, ATCC reference number CCL-185) cells, HeLa cervical cancer cells (ATCC reference number CCL-2) and SKBR3 breast carcinoma cells (ATCC reference number HTB-30) were seeded at densities of 50% on round microscope coverslips and cultured for 24 hours in RPMI-1640 containing 10% FCS (also referred to as FBS) at 37° C., 5% CO2. Compounds to be tested were dissolved in DMSO. The cell culture medium was replaced with medium containing the diluted compound(s) (paclitaxel, vinblastine, colchicine and nocodazole were purchased from Sigma-Aldrich) or vehicle. After treatment for the times indicated in the Brief Description of the Figures, coverslips were washed and cells were fixed in methanol/acetone (1:1) for 5 minutes at room temperature and subsequently incubated in blocking buffer (0.5% BSA and 0.1% TX-100 in PBS) for 30 minutes at room temperature. Specimens were then incubated with anti-alpha-tubulin (Sigma, 1:2000) for 1 hour at room temperature in blocking buffer. After several washing steps cells were incubated with AlexaFluor-488 goat-anti-mouse IgG (Molecular Probes, 1:3000) for 1 hour at room temperature followed by several washing steps with blocking buffer. Specimens were then mounted with ProLong Gold antifade (Molecular Probes, sealed with nail polish and examined with a Leica immunofluorescence microscope. Images were captured with a cooled CCD-camera and processed by ImageJ software.

As for `CC[C@]1(O)C[C@@H]2CN(CCc3c([nH]c4ccccc34)[C@@](C(=O)OC)(c3cc4c(cc3OC)N(C)[C@H]3[C@@](O)(C(=O)OC)[C@H](OC(C)=O)[C@]5(CC)C=CCN6CC[C@]43[C@@H]65)C2)C1` [Vinblastine, vinblastine, reference compound], the “Resistance factors (ratio of IC50 BAL27862-resistant cell line variant and IC50 parental cell line)” value is given as 15.7 in experiment [1], 4.6 in experiment [6] and 2.3 in experiment [7]. Also, the “Response to compound (BAL27862, paclitaxel, vinblastine)” value is “Sensitive” in experiment [2]; “Sensitive” in experiment [3]; “Sensitive” in [4]; “Sensitive” in [5]; “Resistant (BAL27862-resistant tumour cells are defined by IC70 values >600 nanomolar)” in experiment [8].

As for `COc1cc2c(c(OC)c1OC)-c1ccc(OC)c(=O)cc1[C@@H](NC(C)=O)CC2` [Colchicine, colchicine], the “Resistance factors (ratio of IC50 BAL27862-resistant cell line variant and IC50 parental cell line)” value in experiment [1] came to 2.0; in experiment [9], 2.8; in experiment [6] it was 1.6; in [7], 0.9.

As to `Nc1ccc(C(=O)Cn2c(-c3nonc3N)nc3ccccc32)cc1` [Compound B, 2-[2-(4-Amino-furazan-3-yl)-benzoimidazol-1-yl]-1-(4-amino-phenyl)-ethanone], the “Microtubule phenotype of mitotic or G2/M arrested cells” value in experiment [10] was “highly reproducible and distinct microtubule phenotype”.

For the compound `N#CCCNc1nonc1-c1nc2ccccc2n1CC(=O)c1ccc(N)nc1` [Compound C, 3-(4-{1-[2-(6-Amino-pyridin-3-yl)-2-oxo-ethyl]-1H-benzoimidazol-2-yl}-furazan-3-ylamino)-propionitrile], the “Microtubule phenotype of mitotic or G2/M arrested cells” value in experiment [10] is “highly reproducible and distinct microtubule phenotype”.

In the case of `CC(=O)O[C@H]1C(=O)[C@@]2(C)[C@H]([C@H](OC(=O)c3ccccc3)[C@]3(O)C[C@H](OC(=O)[C@H](O)[C@@H](NC(=O)c4ccccc4)c4ccccc4)C(C)=C1C3(C)C)[C@]1(OC(C)=O)CO[C@@H]1C[C@@H]2O` [Paclitaxel, paclitaxel], the “Resistance factors (ratio of IC50 BAL27862-resistant cell line variant and IC50 parental cell line)” value in experiment [1] is reported as 0.4; in experiment [9], 0.5; in experiment [6] it was 0.3; in experiment [7], 0.06. Further, the “Response to compound (BAL27862, paclitaxel, vinblastine)” value in [2], in experiment [4] and in experiment [8] was “Resistant (BAL27862-resistant tumour cells are defined by IC70 values >600 nanomolar)” throughout.

Regarding `COC(=O)Nc1nc2ccc(C(=O)c3cccs3)cc2[nH]1` [Nocodazole, nocodazole], the “Resistance factors (ratio of IC50 BAL27862-resistant cell line variant and IC50 parental cell line)” value in [1] is 3.6; in experiment [9] it was 3.9; in [6] it was 1.3; in experiment [7], 1.6.
